Measurements: patent publication US20100311656A1 (priority 2003, published 2010)

What was measured:
[1] = subcutaneously injected; cited from earlier work
[2] = 0.2 mg/kg or 2 mg/kg s.c.; no toxicity controls included; cited from earlier work
SARS-CoV (Urbani) = format: in vivo, mice
[3] = cited from earlier work
[4] = mouse, in vivo

Substance | Plasma half-life [1] | Tolerability of the doses used (previously shown) [2] | Effect on virus lung titers (SARS-CoV (Urbani); mouse, in vivo) | Reduction of virus lung titers (SARS-CoV (Urbani); mouse, in vivo) | Reduction of virus titers (SARS-CoV (Urbani); mouse, in vivo) | Virus titer reductions (range over regimens) (SARS-CoV (Urbani); mouse, in vivo) | Dose found to be safe for humans [3] | Tolerability of treatments [4] | Inhibition of lung virus titers (SARS-CoV (Urbani); 50 μg/mouse i.n., positive control, P<0.01) | Virus Titer (Log10 CCID50/g) (SARS-CoV (Urbani); lung, day 3 after infection, 50 μg/mouse i.n., -24 h, +12 h, mean ± SD, P < 0.01 vs buffer) | Mean Body Weight Change [4]
Ac-SDAAVDTSSEITTKDLKEKKEVVEEAEN-OH [thymosin alpha-1] | about two | well tolerated | significantly reduced virus lung titers | about one | approximately 0.5 log10 unit | 0.5-1.0 log10 units | ≤ 16 mg/kg body weight/day | very well tolerated | – | – | –
Poly-ICLC | – | – | – | – | – | – | – | – | ~3 log 10 units | 2.9 ± 0.1 Log10 CCID50/g | 0.0 g
